Reference: patent US20080299166A1, “NOVEL BIOMATERIALS, THEIR PREPARATION AND USE” (priority 2002, published 2008)

Assay: In vitro release of Ketotifen-hydrogenfumarate from drug-loaded polymeric matrix
Assay type: physicochemical
Conditions: under the same conditions (stirred aqueous system)
Experimental: Two consecutive batches of the polymeric matrix were prepared at lab scale and loaded with the selected water-soluble investigational drug, Ketotifen hydrogenfumarate in accordance with the method described in Example 11. The in vitro release profile of the Ketotifen depot formulation was carried out as follows: […]
1 g of the dry polymeric matrix loaded with Ketotifen-hydrogenfumarate according to Example 11. was stirred with 600 r.p.m. in 50 ml of deionised water at 37° C. The released amount of Ketotifen-hydrogenfumarate was determined by HPLC.
Matrices with 8% Ketotifen load were prepared as described in Example 11. Using two different Hyaluronic acid containing reaction mixtures. One contained 1%, while the other 0.5% hyaluronic acid. […] (See Table 7.) The in vitro dissolution test was performed as described in Example 12.

In the case of `CN1CCC(=C2c3ccccc3CC(=O)c3sccc32)CC1` [non-formulated plain Ketotifen, Ketotifen-hydrogenfumarate], the “release compared with the matrix” value is reported as “much faster”.
